From patent US9896441B2 (Lycera Corporation, priority 2014, dated 2018) come the findings set out here.

The target in the first assay is T1, RORγ-LBD (Homo sapiens, UniProt P51449).
T1 construct: made in house; host or cells: SF9 cells (baculovirus); used as diluted lysate
T1 sequence (P51449 269-508 limits assumed): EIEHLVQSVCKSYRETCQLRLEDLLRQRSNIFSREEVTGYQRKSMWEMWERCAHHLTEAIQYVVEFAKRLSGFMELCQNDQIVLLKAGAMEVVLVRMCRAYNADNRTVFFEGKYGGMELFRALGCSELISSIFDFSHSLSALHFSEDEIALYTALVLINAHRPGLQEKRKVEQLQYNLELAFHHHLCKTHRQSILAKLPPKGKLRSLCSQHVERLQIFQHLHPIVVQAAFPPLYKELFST
Description: RORγ-Ligand Binding Domain (LBD) TR-FRET Assay.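 For TR-FRET Assay Max Response: 665/615 nm signal ratio set to 100 without ursolic acid or test compound.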 It is filed as biochemical. The note with it: RORγ-LBD TR-FRET. On the procedure:
Assay procedures and results are described below.
HIS-tagged RORγ-LBD protein was expressed in SF9 cells using a baculovirus expression system. The lysate was diluted in assay buffer (50 mM Tris pH 7.0, 50 mM KCl, 1 mM EDTA, 0.1 mM DTT, 0.01% BSA) to obtain RORγ-LBD final concentration of ˜3 nM in a 384-well assay plate (need to titrate for each batch of protein).
A stock of biotinylated-LXXLL peptide from coactivator SRC1 (Biotin-[…]) was prepared in assay buffer and added to each well (200 nM final concentration). […] RORγ antagonist ursolic acid was also included at a final concentration of 2 μM. Compounds were diluted in DMSO and further diluted in assay buffer with a final DMSO concentration at 1%.
(Time-resolved FRET reads energy transfer from a long-lived donor to a nearby acceptor.)
As for `COc1cc(S(=O)(=O)N2c3cc(OCc4c(F)cccc4Cl)ccc3C[C@@H](C(=O)O)[C@H]2C)ccc1F` (racemic) [Example 21, (2R,3R)-7-((2-Chloro-6-fluorobenzyl)oxy)-1-((4-fluoro-3-methoxyphenyl)sulfonyl)-2-methyl-1,2,3,4-tetrahydroquinoline-3-carboxylic acid], the EC50 (in general, the concentration that produces a half-maximal response) was less than 0.5 µM.

The compound `COc1cc(S(=O)(=O)N2CCCc3ccc(O[C@@H]4c5ccccc5C[C@@H]4C)cc32)ccc1F` (relative stereo) [Example 25D, 1-((4-fluoro-3-methoxyphenyl)sulfonyl)-7-(((cis)-2-methyl-2,3-dihydro-1H-inden-1-yl)oxy)-1,2,3,4-tetrahydroquinoline] returned an EC50 of less than 0.5 µM. `Cc1nn(C(F)F)cc1S(=O)(=O)N1CC(CO)Cc2ccc(OCc3c(F)cccc3Cl)cc21` (stereo not drawn) [Example 9D] displayed an EC50 of less than 0.5 µM. The same measure, in the same setting: the result for `CCOC(=O)C1Cc2ccc(OCc3c(F)cccc3Cl)cc2N(S(=O)(=O)c2cn(CC)nc2Cl)C1` (stereo not drawn) [Example 9E, ethyl 1-((3-chloro-1-ethyl-1H-pyrazol-4-yl)sulfonyl)-7-((2-chloro-6-fluorobenzyl)oxy)-1,2,3,4-tetrahydroquinoline-3-carboxylate] reads less than 0.5 µM; that for `COc1cc(S(=O)(=O)N2CCCc3ccc(OCc4c(F)cccc4Cl)cc32)ccc1F` [Example 24, 7-((2-Chloro-6-fluorobenzyl)oxy)-1-((4-fluoro-3-methoxyphenyl)sulfonyl)-1,2,3,4-tetrahydroquinoline], less than 0.5 µM; that for `COc1cc(S(=O)(=O)N2CCCc3ccc(O[C@H]4CCc5ccccc54)cc32)ccc1F` [Example 25A, (S)-7-((2,3-dihydro-1H-inden-1-yl)oxy)-1-((4-fluoro-3-methoxyphenyl)sulfonyl)-1,2,3,4-tetrahydroquinoline], less than 0.5 µM.

Regarding `COc1cc(S(=O)(=O)N2CCCc3ccc(O[C@@H]4CCc5ccccc54)cc32)ccc1F` [Example 25B, (R)-7-((2,3-dihydro-1H-inden-1-yl)oxy)-1-((4-fluoro-3-methoxyphenyl)sulfonyl)-1,2,3,4-tetrahydroquinoline], the EC50 is less than 0.5 µM. `O=S(=O)(c1cccc(C(F)(F)F)c1)N1CCCc2cc(OCc3ccccc3)ccc21` [Example 25K, 6-(benzyloxy)-1-((3-(trifluoromethyl)phenyl)sulfonyl)-1,2,3,4-tetrahydroquinoline] registered an EC50 of less than 0.5 µM. With `O=S(=O)(c1cccc(C(F)(F)F)c1)N1CCCc2cc(OC3CCCCC3)ccc21` [Example 25L, 6-(cyclohexyloxy)-1-((3-(trifluoromethyl)phenyl)sulfonyl)-1,2,3,4-tetrahydroquinoline], the half-maximal effective concentration (EC50) was less than 0.5 µM.

In turn, `O=S(=O)(c1cccc(C(F)(F)F)c1)N1CCCc2cc(OCC3CCCCC3)ccc21` [Example 25M, 6-(cyclohexylmethoxy)-1-((3-(trifluoromethyl)phenyl)sulfonyl)-1,2,3,4-tetrahydroquinoline] yielded an EC50 of less than 0.5 µM. The compound `O=S(=O)(c1cccc(C(F)(F)F)c1)N1CCCc2cc(OCCc3ccccc3)ccc21` [Example 25N, 6-phenethoxy-1-((3-(trifluoromethyl)phenyl)sulfonyl)-1,2,3,4-tetrahydroquinoline] showed an EC50 of less than 0.5 µM.

In turn, `COc1cc(S(=O)(=O)N2CCCc3cc(OCc4c(F)cccc4Cl)ccc32)ccc1F` [Example 25O, 6-((2-chloro-6-fluorobenzyl)oxy)-1-((4-fluoro-3-methoxyphenyl)sulfonyl)-1,2,3,4-tetrahydroquinoline] displayed an EC50 of less than 0.5 µM. In turn, `COc1cc(S(=O)(=O)N2CCCc3ccc(OCc4c(Cl)cccc4C4CC4)cc32)ccc1F` [Example 25S, 7-((2-chloro-6-cyclopropylbenzyl)oxy)-1-((4-fluoro-3-methoxyphenyl)sulfonyl)-1,2,3,4-tetrahydroquinoline] showed an EC50 of less than 0.5 µM. `COc1cc(S(=O)(=O)N2CCCc3ccc(OCc4c(F)cccc4C4CC4)cc32)ccc1F` [Example 25T, 7-((2-cyclopropyl-6-fluorobenzyl)oxy)-1-((4-fluoro-3-methoxyphenyl)sulfonyl)-1,2,3,4-tetrahydroquinoline] displayed an EC50 of less than 0.5 µM.

The same assay, now with this note: RORγ-LBD TR-FRET assay.
In turn, `CCOC(=O)C(C)(C)CC1C[C@H](S(=O)(=O)c2cccc(C(F)(F)F)c2)c2cc(/C=C(\C)c3c(F)cccc3Cl)ccc2O1` (stereo in doubt) [Example 186L, ethyl 3-((2S,4S)-6-((E)-2-(2-chloro-6-fluorophenyl)prop-1-en-1-yl)-4-((3-(trifluoromethyl)phenyl)-sulfonyl)chroman-2-yl)-2,2-dimethylpropanoate] yielded an EC50 of less than 0.5 µM.

Staying with this assay, now noted: RORγ-LBD TR-FRET assay, maximum response.
Turning to `CCOC(=O)C(C)(C)CC1C[C@H](S(=O)(=O)c2cccc(C(F)(F)F)c2)c2cc(/C=C(\C)c3c(F)cccc3Cl)ccc2O1` (stereo in doubt) [Example 186L, ethyl 3-((2S,4S)-6-((E)-2-(2-chloro-6-fluorophenyl)prop-1-en-1-yl)-4-((3-(trifluoromethyl)phenyl)-sulfonyl)chroman-2-yl)-2,2-dimethylpropanoate], the “TR-FRET Assay Max Response” value is listed as “*** (a value in the range of greater than 150 to 200)”.

The assay is the same for the next values; noted with them: with 2 μM ursolic acid (RORγ antagonist); highest test concentration 10 μM.
As for `O=C(O)C1Cc2ccc(OCc3ccc4ccccc4c3)cc2N(S(=O)(=O)c2cccc(C(F)(F)F)c2)C1` (stereo not drawn), the EC50 is greater than 10 µM. Same read-out and setting: for `CC(C)(C)c1ccc(COc2ccc3c(c2)N(S(=O)(=O)c2cccc(C(F)(F)F)c2)CC(C(=O)O)C3)cc1` (stereo not drawn) the value was greater than 10 µM; for `O=C(O)C1Cc2ccc(OCc3ccc(C(F)(F)F)c(F)c3)cc2N(S(=O)(=O)c2cccc(C(F)(F)F)c2)C1` (stereo not drawn), 5 to 10 µM.

The compound `Cc1ccc(COc2ccc3c(c2)N(S(=O)(=O)c2cccc(C(F)(F)F)c2)CC(C(=O)O)C3)cc1F` (stereo not drawn) gave an EC50 greater than 10 µM. Same read-out and setting: for `O=C(O)C1Cc2ccc(OCc3c(Cl)cccc3Cl)cc2N(S(=O)(=O)c2cccc(C(F)(F)F)c2)C1` (stereo not drawn) the value was less than 0.5 µM; for `O=C(O)C1Cc2ccc(OCc3cc(F)ccc3Cl)cc2N(S(=O)(=O)c2cccc(C(F)(F)F)c2)C1` (stereo not drawn), less than 0.5 µM. Same read-out and setting: for `O=C(O)C1Cc2ccc(OCc3cc(C(F)(F)F)ccc3F)cc2N(S(=O)(=O)c2cccc(C(F)(F)F)c2)C1` (stereo not drawn) the value was less than 0.5 µM; for `O=C(O)C1Cc2ccc(OCc3ccccc3F)cc2N(S(=O)(=O)c2cccc(C(F)(F)F)c2)C1` (stereo not drawn), less than 0.5 µM; for `O=C(O)C[C@H]1CN(S(=O)(=O)c2cccc(C(F)(F)F)c2)c2cc(NCc3c(F)cccc3Cl)ccc2O1`, less than 0.5 µM.

Take `CCn1cc(S(=O)(=O)N2C[C@H](CNC(C)=O)Nc3ccc(NCc4c(F)cccc4Cl)cc32)c(Cl)n1`: the EC50 is less than 0.5 µM. On the same count and under the same terms, the result for `CC(=O)NC[C@H]1CN(S(=O)(=O)c2cccc(C(F)(F)F)c2)c2cc(NCc3c(F)cccc3Cl)ccc2O1` reads less than 0.5 µM; that for `COC(=O)C[C@H]1CN(S(=O)(=O)c2cccc(C(F)(F)F)c2)c2cc(NCc3c(F)cccc3Cl)ccc2O1`, less than 0.5 µM; that for `O=C(O)C1Cc2ccc(OCc3c(F)cccc3C(F)(F)F)cc2N(S(=O)(=O)c2cccc(C(F)(F)F)c2)C1` (stereo not drawn), less than 0.5 µM.

The compound `CCn1cc(S(=O)(=O)N2CC(C(=O)O)Cc3ccc(/C=C(\C)c4c(F)cccc4Cl)cc32)c(Cl)n1` (stereo not drawn) gave an EC50 of less than 0.5 µM.

For the compound `Cc1nn(C(F)F)cc1S(=O)(=O)N1CC(C(=O)O)Cc2ccc(OCc3c(F)cccc3Cl)cc21` (stereo not drawn), the EC50 lay in the range of 0.5 to 5 µM. For `COc1cc(S(=O)(=O)N2CC(C(=O)O)Cc3ccc(OCc4c(F)cccc4Cl)cc32)ccc1F` (stereo not drawn), the EC50 is less than 0.5 µM.

Consider `CCn1cc(S(=O)(=O)N2CC(C(=O)O)Oc3ccc(OCc4c(F)cccc4Cl)cc32)c(Cl)n1` (stereo not drawn), for which the EC50 is less than 0.5 µM. Still for that read-out and setting: for `CCOc1nn(CC)cc1S(=O)(=O)N1CC(CO)Cc2ccc(OCc3c(F)cccc3Cl)cc21` (stereo not drawn) the value was less than 0.5 µM. `COc1cc(S(=O)(=O)N2CC(CO)Cc3ccc(OCc4c(F)cccc4Cl)cc32)ccc1F` (stereo not drawn) yielded an EC50 of less than 0.5 µM. On the same count and under the same terms, for `O=S(=O)(c1cccc(C(F)(F)F)c1)N1CC(CO)Cc2ccc(OCc3c(F)cccc3Cl)cc21` (stereo not drawn) the value was less than 0.5 µM.
